Test results reported in ChEMBL document CHEMBL1121615, “Synthesis and analgesic properties of some conformationally restricted analogues of profadol” (1980).

What was measured:
Format in all cases: functional
Mus musculus [1] = experiment: Analgesia was determined by writhing test in mice after 30 mg/kg oral administration; Range is 50-74%.
Mus musculus [2] = experiment: The ED50 value of compound was measured for 50% inhibition for analgesia in mice after oral administration by the hotplate method
Mus musculus [3] = experiment: Analgesia was determined by writhing test in mice after 100 mg/kg oral administration; Range is 50-74%.
Mus musculus [4] = experiment: Analgesia was determined by writhing test in mice after 100 mg/kg oral administration; Range is 75-99%.
Mus musculus [5] = species: Mus musculus; experiment: animal or person
Description: The ED50 value of compound was measured for 50% inhibition for analgesia in mice by the hotplate method

Mus musculus [6] = experiment: Analgesia was determined by writhing test in mice after 100 mg/kg oral administration; Range is 25-49%.
Mus musculus [7] = experiment: Analgesia was determined by writhing test in mice after 30 mg/kg oral administration
Mus musculus [8] = experiment: Analgesia was determined by writhing test in mice after 10 mg/kg oral administration

`COc1ccc2c(c1)C1(CCC2)CCN(C)C1` (stereo not given) was tested, and the inhibition in vivo at 30 mg/kg (Mus musculus [1]) was 50% and the ED50 (Mus musculus [2]) was over 50 mg/kg.
`COc1ccc2c(c1)CCCC21CCN(C)C1` (stereo not given) was tested, and the inhibition in vivo at 100 mg/kg (Mus musculus [3]) was 50%.
For `COc1cccc2c1CCCC21CCN(C)C1` (stereo not given), the inhibition in vivo at 100 mg/kg (Mus musculus [4]) was 75%.
`COc1cccc2c1CCCC21CCNC1` (stereo not given) showed an inhibition in vivo at 30 mg/kg (Mus musculus [1]) of 50% and an ED50 (Mus musculus [5]) of 48.6 mg/kg.
`Oc1ccc2c(c1)CCCC21CCNC1` (stereo not given) gave an inhibition in vivo at 100 mg/kg (Mus musculus [3]) of 50%.
Work on `Oc1ccc2c(c1)C1(CCC2)CCNC1` (stereo not given) yielded an inhibition in vivo at 100 mg/kg (Mus musculus [3]) of 50%.
`Br.Oc1cccc2c1CCCC21CCNC1` (stereo not given) showed an inhibition in vivo at 30 mg/kg (Mus musculus [1]) of 50% and an ED50 (Mus musculus [2]) of over 50 mg/kg.
For `Br.CN1CCC2(CCCc3ccc(O)cc32)C1` (stereo not given), the inhibition in vivo at 30 mg/kg (Mus musculus [1]) was 50% and the ED50 (Mus musculus [5]) was 42.8 mg/kg.
Molecule `COc1ccc2c(c1)C1(CCC2)CCNC1` (stereo not given) has an inhibition in vivo at 100 mg/kg (Mus musculus [6]) of 25%.
For `CN1CCC2(CCCc3c(O)cccc32)C1` (stereo not given), the inhibition in vivo at 100 mg/kg (Mus musculus [6]) was 25%.
`Cl.c1ccc2c(c1)CCCC21CCNC1` (stereo not given) gave an inhibition in vivo at 30 mg/kg (Mus musculus [7]) of 100% and an ED50 (Mus musculus [5]) of 13.3 mg/kg.
`Br.CN1CCC2(CCCc3cc(O)ccc32)C1` (stereo not given) was tested, and the inhibition in vivo at 30 mg/kg (Mus musculus [1]) was 50% and the ED50 (Mus musculus [5]) was over 50 mg/kg.
With `CN1CCC2(CCCc3ccccc32)C1.Cl` (stereo not given) the inhibition in vivo at 30 mg/kg (Mus musculus [7]) was 100% and the ED50 (Mus musculus [5]) was 12.1 mg/kg.
With `COc1ccc2c(c1)CCCC21CCNC1` (stereo not given) the inhibition in vivo at 100 mg/kg (Mus musculus [6]) was 25%.
`CN1CC[C@]23c4c5ccc(O)c4O[C@H]2[C@@H](O)C=C[C@H]3[C@H]1C5.Cl` [MORPHINE HYDROCHLORIDE] showed an inhibition in vivo at 10 mg/kg (Mus musculus [8]) of 100% and an ED50 (Mus musculus [5]) of 1.2 mg/kg.
`CCCC1(c2cccc(O)c2)CCN(C)C1` (stereo not given) [PROFADOL] showed an ED50 (Mus musculus [2]) of 3.9 mg/kg and an inhibition in vivo at 10 mg/kg (Mus musculus [8]) of 100%.
